Here are results for 10 compounds from PMC8989696, “Characterization of furathiocarb metabolism in in-vitro human liver microsomes and recombinant cytochrome P450 enzymes” (Toxicology Reports, 2022).

Read-outs that look alike come from different tables or passages of the source.

Data set [1] can be described thus: Furathiocarb biotransformation kinetics in individual human hepatic microsomes (10 donors). As to conditions: for Variation between the highest and lowest formation rate / Metabolite formation rate (lowest to highest of 10 donors): at 300 µM furathiocarb; for Variation between the highest and lowest formation rate: 10 donors; for Metabolite formation rate (lowest to highest of 10 donors): individual human hepatic microsomes. Type of data set: in vitro ADME. The method, then:
The incubation mixture (ﬁnal volume of 200 µl of 0.1 M phosphate buffer) contained 50 and 100 µM furathiocarb, 0.15 mg pooled liver microsomal protein (n = 10), and 1 mM NADPH. The reaction was initiated by NADPH after a 2 min pre-incubation at + 37 °C and was incubated for 30 min at + 37 °C. The reaction stopped with ice-cold acetonitrile containing an internal standard.
Enzyme kinetic parameters of both the microsomal samples and rCYP enzymes were measured. The incubation mixture contained furathiocarb (2.5, 10, 25, 50, 150 and 300 µM). Incubation times were 20 and 30 min for microsomal samples and rCYPs, respectively. Otherwise incubation mixtures and methods were the same as in metabolite identification. The rate of sum of furathiocarb metabolite formation was linear at least up to 0.15 mg protein/ml and 30 min incubation time in the standard experimental conditions.
The standard incubation mixture contained 50 and 100 µM furathiocarb, 0.15 mg pooled liver microsomal protein (n = 10), and 1 mM NADPH in a ﬁnal volume of 200 µl of 0.1 M phosphate buffer (pH 7.4). Furathiocarb was prepared once a week in dimethylsulfoxide (DMSO; ﬁnal amount in the reaction medium 1.0%). After a 2-min incubation at +37 ◦C in a shaking incubator block, the reaction was started by adding NADPH. The mixture was incubated at +37 ◦C for 30 min and the reaction was stopped with 600 µl of ice-cold acetonitrile containing an internal standard. All incubations were carried out in triplicate.

For data set [2], the system named is CYP2C9. As to conditions: read-out: IC50, CYP2C9; range given jointly for CYP2C9, 2C19 and CYP2D6; no reference given; cited from earlier work.
For data set [3], the system named is 2C19. As to conditions: read-out: IC50, 2C19; range given jointly for CYP2C9, 2C19 and CYP2D6; no reference given; cited from earlier work.
The test system of data set [4] is CYP2D6. The following applies: cited from earlier work.
Data set [5] relates to CYP3A4. The following applies: cited from earlier work.
Data set [6] has as its system CYPs 1A1/2. As to conditions: read-out: IC50, CYP 1A1/2; cited from earlier work.
For data set [7], the system named is 2B6. As to conditions: read-out: IC50, CYP 2B6; cited from earlier work.
The conditions of data set [8]: 54; cited from earlier work.
Data set [9] has as its system CYP3A4. The experiment in a line: in vitro. As to conditions: ketoconazole 100 µM, pooled human hepatic microsomes. The method, then: Formation rates of metabolites were determined in the presence or absence of ketoconazole 100 µM.
Each point represents the mean ± S.D of three separate determinations.

Where [10] appears, read: read-out: IC50, CYP3A4 (MDZ-OH).

On to `CC1(C)Cc2cccc(O)c2O1` [7-phenolcarbofuran], for which, in data set [1], the “Variation between the highest and lowest formation rate” value is 2 fold; the “Metabolite formation rate (lowest to highest of 10 donors)” value is 4.5–8.3 nmol/(mg protein min).
The corresponding values for `CNC(=O)Oc1cccc2c1OC(C)(C)C2=O` [3-ketocarbofuran] are 54.4 fold and 0.28–15.6 nmol/(mg protein min).
On the same counts, the results for `CNC(=O)Oc1cccc2c1OC(C)(C)C2O` (stereo not drawn) [3-hydroxycarbofuran] are 10 fold and 0.68 to 6.83 nmol/(mg protein min).
With `CCCCN(CCCC)SN(C)C(=O)Oc1cccc2c1OC(C)(C)C2` [Carbosulfan], the IC50 in data set [2] is 16 to 25 µM; in [3], 16 to 25 µM; in [4] (read-out: IC50, CYP2D6, range given jointly for CYP2C9, 2C19 and CYP2D6, no reference given), 16 to 25 µM; in data set [5] (setting [10]) it was 11.2 µM.
On to `CCOP(=S)(OCC)Oc1nc(Cl)c(Cl)cc1Cl` [Chlorpyrifos], for which the IC50 in data set [6] was 2.9 µM; in [4] (read-out: IC50, CYP 2D6), 3.3 µM; in data set [7], 2.5 µM; in data set [5] (read-out: IC50, CYP 3A4) it was 4 µM.
On to `CC1(C)Oc2c(O)cccc2C1=O` [3-keto-7-phenolcarbofuran], for which the “Metabolite amounts formed in HLM31” value in [1] (HLM31, all furathiocarb concentrations used) is “below the limits of quantiﬁcation”.
With `CC1(C)Oc2c(O)cccc2C1O` (stereo not drawn) [3-hydroxy-7-phenolcarbofuran], in data set [1], the “Variation between the highest and lowest formation rate” value came to 23 fold; the “Metabolite formation rate (lowest to highest of 10 donors)” value is on record as 0.02–0.52 nmol/(mg protein min).
Turning to `CNC(=O)Oc1cccc2c1OC(C)(C)C2` [Carbofuran, carbofuran], the “Toxic class, WHO classification of pesticides by hazard” value in [8] is 1b.
As to `CCOC(=O)CCN(SN(C)C(=O)Oc1cccc2c1OC(C)(C)C2)C(C)C` [benfuracarb], the IC50 in [5] (setting [10]) is 14.8 µM.
Consider `CC(=O)N1CCN(c2ccc(OCC3COC(Cn4ccnc4)(c4ccc(Cl)cc4Cl)O3)cc2)CC1` (stereo not drawn) [Ketoconazole], for which, in [9] (human, microsomes, Inhibition of carbofuran metabolic pathway formation, various furathiocarb concentrations), the inhibition at 20 min, 100 µM is 32 to 86%. Besides, in data set [9], the “Effect on the formation of metabolite A” value was “no effects”.

The inhibition is the drop in the measured response relative to a control, in per cent. A higher inhibition goes with a strong effect.
